Reference: patent US20240043860A1, “NOVEL HYDROXYPHENYLPYRUVATE DIOXYGENASE POLYPEPTIDES AND METHODS OF USE THEREOF” (Syngenta Crop Protection AG, priority 2020, published 2024)

Tests used:
[1] = tested on: transgenic tobacco plants expressing mutant HPPD SEQ ID 20; test: spray test, herbicidal damage scoring; type: in vivo; conditions: several events expressing SEQ ID 20; 800 g/ha (Table 3.3)
Procedure: Avena sativa HPPD or orthologues and variants thereof, for example SEQ IDs 1-63 and 122-127, were expressed in transgenic tobacco. DNA sequences that encode these polypeptides (optimized for tobacco or, optionally, codon optimized according to a target crop such as soybean) were prepared synthetically. Each sequence was designed to include a 5′ fusion with TMV omega 5′ leader sequence such that they are flanked at the 5′ end with XhoI and at the 3′ end with KpnI to facilitate direct cloning into a suitable binary vector for Agrobacterium-based plant transformation. […]
Plants are assessed for damage and scored at, for example, 7 and 14 days after treatment (DAT). […]
Plants of events showing the least damage are grown to flowering, then bagged and allowed to self. […] Single copy events amongst the Ti plant lines are identified by their 3:1 segregation ratio (with respect to kanamycin and/or herbicide) and by quantitative RT-PCR. […] HPPD expression levels were monitored by Western analysis.
The tobacco lines expressing SEQ ID 122 were now compared to a population of tobacco which express SEQ ID 20. The plants were sprayed with 800g/ha Bicyclopyrone and scored for damage.

[2] = biological target: HPPD variant AVESA V200 (SEQ ID NO: 5) (Avena sativa, UniProt A0ACD5V6K6, A327R/I340E/L359M/V218I/V260A); test: biochemical
Procedure: 25 ul of the overnight cultures were inoculated into fresh 96-deepwell block containing 1 ml Formedium Autoinduction Media (AIM). The AIM cultures were grown for 3h at 37° C. (900rpm) and then transferred to 20° C. overnight (900rpm) to allow protein expression. The overnight cultures were centrifuged and 500 ul of Cellytic B (Sigma Aldrich) was added to resuspend the cell pellets. The coupled HGO assay (Siehl et al, 2014) is used to generate IC50 values for the HPPD variants of interest.
E. coli BL21 (DE3) cells were transformed with a pET24a vector containing a C-terminally his-tagged Arabidopsis HGO gene, grown and induced overnight as described for the HPPD variants above. […]
The coupled HGO assay is carried out by adding 10 ul of HPPD extract to a 96-well plate and then adding 40 ul of reaction buffer (50 mM Bis Tris Propane, pH7.0, 25 mM sodium-L-ascorbate, 400μM mercaptoethanol, 50 μM Fe(II)SO4). […] 200 ul of HPP/HGO (197 μM hydroxyphenylpyruvic acid, 16 μl/ml Homogentisic Acid Oxidase in reaction buffer as described above) buffer is then added to the well and the reaction is regularly monitored (e.g. every 30 seconds-5 minutes) for absorbance at 330 nm for a given time period (e.g., for between 15-60 minutes). […]

Chain of HPPD variant AVESA V200 (SEQ ID NO: 5) (A0ACD5V6K6 entry or part of it V218I/V260A/A327R/I340E/L359M): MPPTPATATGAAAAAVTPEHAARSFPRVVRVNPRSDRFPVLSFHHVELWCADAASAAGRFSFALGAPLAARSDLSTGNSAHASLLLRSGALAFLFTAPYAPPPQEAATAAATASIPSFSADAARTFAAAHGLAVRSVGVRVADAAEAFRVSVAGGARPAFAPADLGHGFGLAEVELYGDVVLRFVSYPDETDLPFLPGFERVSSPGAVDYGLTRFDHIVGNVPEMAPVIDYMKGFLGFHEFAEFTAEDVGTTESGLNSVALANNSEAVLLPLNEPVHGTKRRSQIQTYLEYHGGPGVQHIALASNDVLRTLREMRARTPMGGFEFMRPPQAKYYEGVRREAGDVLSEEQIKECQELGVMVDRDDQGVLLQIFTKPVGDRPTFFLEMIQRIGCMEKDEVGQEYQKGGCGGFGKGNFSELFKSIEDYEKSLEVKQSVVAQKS

| Compound | tolerance in comparison to events expressing SEQ ID 122 [1] | IC50 [2] [µM] |
| --- | --- | --- |
| bicyclopyrone | increased tolerance | – |
| Cn1nnnc1NC(=O)c1ccc(C(F)(F)F)nc1-n1cncn1 [Herbicide D, N-(1-methyltetrazol-5-yl)-2-(1,2,4-triazol-1-yl)-6-(trifluoromethyl)pyridine-3-carboxamide] | – | 63.2 |
